Earlier results on one molecule are cited in patent US7250518B2, “Nicotinamide acids, amides, and their mimetics active as inhibitors of PDE4 isozymes” (Pfizer Inc., priority 2001, dated 2007).

Molecules are shown by their SMILES.

Data set [1] deals with PDE4 derived from tumor cells. Particulars: read-out: IC50 against a PDE4 derived from tumor cells.
For data set [2], the system named is tumor cells.

By IC50 is commonly meant the concentration at which inhibition is half-maximal. As to `Clc1nc2c(N3CCCC3)nc(N3CCNCC3)nc2nc1NCc1ccccc1` [Formula (0.0.55)], in data set [1], the IC50 is 16 nM. Further, the “Concentrations inhibiting the growth of tumor cells” value in data set [2] is reported as “micromolar concentrations”.
